Experiment [1] deals with T1, human glucagon receptor (GCGR) (Homo sapiens, UniProt P47871).
T1 construct: expressed in transfected cells; host or cells: CHO-JumpIn cells, stably transfected
Description: cAMP assay on CHO-JumpIn cells stably transfected with human glucagon receptor (HitHunter cAMP).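 Further: peptides tested as 4-fold serial dilutions starting from a 2 µM solution, cells exposed 1 hr at RT in darkness, cAMP quantified against a cAMP standard curve.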 The experiment is classed as cell-based. The note with it: cAMP accumulation, CHO-JumpIn cells with human GCGR, value ± spread. A general note: Cyclic AMP is a second messenger, typically raised through Gs and lowered through Gi signalling.
Description: Briefly, a 2 μM solution of peptide was prepared, and 4-fold serial dilutions were made. 150 nL of the above titration was then dispensed into an Optiplate384 using an Echo555. […] The HitHunter® cAMP Assay kit calibration curve was prepared following the manufacturer’s protocol (DiscoveRx-90-0075L). 30,000 cells/well were added to the peptides, spun briefly at 500 rpm for 15 s and incubated at RT in the dark for 1 hr. The assay was developed as per the manufacturer’s instructions. cAMP accumulation due to GLP1R agonism or GCGR agonism was measured using an EnVision platereader (PerkinElmer), and calibrated using the cAMP standard curve. Data were analyzed using Assay Data Analyzer (ADA).

Experiment [2] has as its target T2, human GLP-1 receptor (GLP1R) (Homo sapiens, UniProt P43220).
T2 construct: expressed in transfected cells; host or cells: CHO-JumpIn cells, stably transfected
Description: cAMP assay on CHO-JumpIn cells stably transfected with human GLP-1 receptor (HitHunter cAMP).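 Further: peptides tested as 4-fold serial dilution series, cells exposed 1 hr at RT in the dark, cAMP quantified against a cAMP standard calibration curve.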 The experiment is classed as cell-based. The conditions noted are these: Table 2, cAMP accumulation, buffer PBS, 0.1% BSA, 100 μM RO 20-1724, 20% serum, 1 hr at RT, value ± spread, read-out: EC50 GLP1R.

[3] abbreviates: Table 2, buffer PBS, 0.1% BSA, 100 μM RO 20-1724, 20% serum, 1 hr at RT, read-out: EC50 GCGR.

Like-named read-outs stand apart in the source and are kept apart here. Residues, ends and D or L forms follow the SMILES beside them.

T1 sequence (P47871 26-477): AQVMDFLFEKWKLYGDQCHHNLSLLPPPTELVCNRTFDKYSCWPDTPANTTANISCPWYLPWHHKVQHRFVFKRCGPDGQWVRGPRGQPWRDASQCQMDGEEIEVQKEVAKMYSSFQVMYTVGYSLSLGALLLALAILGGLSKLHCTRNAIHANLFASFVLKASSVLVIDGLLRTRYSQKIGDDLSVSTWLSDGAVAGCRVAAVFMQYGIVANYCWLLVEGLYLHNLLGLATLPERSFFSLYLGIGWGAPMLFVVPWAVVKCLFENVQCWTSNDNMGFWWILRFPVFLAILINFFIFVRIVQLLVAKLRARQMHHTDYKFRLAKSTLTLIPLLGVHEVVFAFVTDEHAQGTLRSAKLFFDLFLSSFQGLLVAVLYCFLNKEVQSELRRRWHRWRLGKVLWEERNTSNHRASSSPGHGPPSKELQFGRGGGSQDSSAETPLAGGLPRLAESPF
T2 sequence (P43220 24-463): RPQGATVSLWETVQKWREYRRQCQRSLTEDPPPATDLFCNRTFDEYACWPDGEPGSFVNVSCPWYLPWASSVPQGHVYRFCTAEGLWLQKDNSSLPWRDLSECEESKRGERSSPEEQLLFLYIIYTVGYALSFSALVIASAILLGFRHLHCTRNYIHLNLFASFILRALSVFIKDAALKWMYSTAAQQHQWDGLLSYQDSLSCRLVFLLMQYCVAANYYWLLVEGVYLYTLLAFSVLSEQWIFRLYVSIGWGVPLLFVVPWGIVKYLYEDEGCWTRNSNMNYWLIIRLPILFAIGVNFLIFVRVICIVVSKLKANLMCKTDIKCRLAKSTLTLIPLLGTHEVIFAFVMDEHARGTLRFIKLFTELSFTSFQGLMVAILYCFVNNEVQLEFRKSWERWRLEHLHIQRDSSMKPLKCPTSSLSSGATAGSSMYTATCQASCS

Regarding `CC[C@H](C)[C@H](NC(=O)[C@H](CC(C)C)NC(=O)[C@H](Cc1c[nH]c2ccccc12)NC(=O)[C@H](CCC(N)=O)NC(=O)[C@@H](NC(=O)[C@H](Cc1ccccc1)NC(=O)[C@H](CC(=O)O)NC(=O)[C@H](CCC(N)=O)NC(=O)[C@H](C)NC(=O)[C@H](CCCNC(=N)N)NC(=O)[C@H](CCCNC(=N)N)NC(=O)[C@H](CO)NC(=O)[C@H](CC(=O)O)NC(=O)[C@H](CC(C)C)NC(=O)[C@H](Cc1ccc(O)cc1)NC(=O)[C@H](CCCCN)NC(=O)[C@H](CO)NC(=O)[C@H](Cc1ccc(O)cc1)NC(=O)[C@H](CC(=O)O)NC(=O)[C@H](CO)NC(=O)[C@@H](NC(=O)[C@H](Cc1ccccc1)NC(=O)[C@@H](NC(=O)CNC(=O)[C@H](CCC(N)=O)NC(=O)[C@H](CO)NC(=O)[C@@H](N)Cc1c[nH]cn1)[C@@H](C)O)[C@@H](C)O)C(C)C)C(=O)N[C@@H](CC(N)=O)C(=O)N[C@@H](Cc1ccc(O)cc1)C(N)=O` [Peptide 13], the figures for the EC50 in experiment [1] (setting [3]) and in experiment [2] were 0.078 ± 0.05 nM and 0.039 ± 0.008 nM, respectively.

Consider `CC[C@H](C)[C@H](N)C(=O)N[C@@H](CC(N)=O)C(=O)N[C@@H](Cc1c[nH]cn1)C(=O)N[C@@H](CCC(=O)O)C(=O)N[C@@H](CCC(N)=O)C(=O)N[C@@H](Cc1c[nH]c2ccccc12)C(=O)N[C@@H](C)C(=O)N[C@@H](Cc1ccccc1)C(=O)N[C@H](C(=O)N[C@@H](CO)C(=O)N[C@@H](CC(=O)O)C(=O)N[C@@H](Cc1ccc(O)cc1)C(=O)N[C@@H](CO)C(=O)N[C@@H](CCCCN)C(=O)N[C@@H](Cc1ccc(O)cc1)C(=O)N[C@@H](CC(C)C)C(=O)N[C@@H](CC(=O)O)C(=O)N[C@@H](CO)C(=O)N[C@@H](CCCNC(=N)N)C(=O)N[C@@H](CCCNC(=N)N)C(=O)N[C@@H](C)C(=O)N[C@@H](CCC(N)=O)C(=O)N[C@@H](CC(=O)O)C(=O)N[C@@H](Cc1ccccc1)C(=O)N[C@H](C(=O)N[C@@H](CCC(N)=O)C(=O)N[C@@H](Cc1c[nH]c2ccccc12)C(=O)N[C@@H](CC(C)C)C(=O)N[C@@H](CCSC)C(=O)N[C@@H](CC(N)=O)C(=O)N[C@H](C(N)=O)[C@@H](C)O)C(C)C)[C@@H](C)O` [Peptide 14] (H-INHEQWAFTSDYSKYLDSRRAQDFVQWLMNT-NH2), for which the EC50 (usually the concentration that produces a half-maximal response) in experiment [1] (setting [3]) worked out at 2.6 ± 3.68 nM.

Take `CCCCCCCCCCCCCCCC(=O)N[C@@H](CCC(=O)N[C@@H](CCC(=O)NCCCC[C@H](NC(=O)[C@H](CC(=O)O)NC(=O)[C@H](CO)NC(=O)[C@@H](NC(=O)[C@H](Cc1ccccc1)NC(=O)[C@@H](NC(=O)CNC(=O)[C@H](CCC(N)=O)NC(=O)[C@@H](CO)NC(=O)[C@@H](N)Cc1c[nH]cn1)[C@@H](C)O)[C@@H](C)O)C(=O)N[C@@H](CO)C(=O)N[C@@H](CCCCN)C(=O)N[C@@H](Cc1ccc(O)cc1)C(=O)N[C@@H](CC(C)C)C(=O)N[C@@H](CC(=O)O)C(=O)N[C@@H](CO)C(=O)N[C@@H](CCCNC(=N)N)C(=O)N[C@@H](CCCNC(=N)N)C(=O)N[C@@H](C)C(=O)N[C@@H](Cc1c[nH]cn1)C(=O)N[C@@H](CC(=O)O)C(=O)N[C@@H](Cc1ccccc1)C(=O)N[C@H](C(=O)N[C@@H](CCC(N)=O)C(=O)N[C@@H](Cc1c[nH]c2ccccc12)C(=O)N[C@@H](CC(C)C)C(=O)N[C@@H](CC(C)C)C(=O)N[C@@H](CC(N)=O)C(=O)N[C@H](C(N)=O)[C@@H](C)O)C(C)C)C(=O)O)C(=O)O` [Peptide 36]: the EC50 in experiment [1] (Table 3, engineered versus parent peptides, read-out: EC50 hGCGR) came to 0.023 ± 0.004 nM.

As to `CC(C)C[C@H](NC(=O)[C@H](CC(C)C)NC(=O)[C@H](Cc1c[nH]c2ccccc12)NC(=O)[C@H](CCC(N)=O)NC(=O)[C@@H](NC(=O)[C@H](Cc1ccccc1)NC(=O)[C@H](CC(=O)O)NC(=O)[C@H](CCC(N)=O)NC(=O)[C@H](C)NC(=O)[C@H](CCCNC(=N)N)NC(=O)[C@H](CCCNC(=N)N)NC(=O)[C@H](CO)NC(=O)[C@H](CC(=O)O)NC(=O)[C@H](CC(C)C)NC(=O)[C@H](Cc1ccc(O)cc1)NC(=O)[C@H](CCCCN)NC(=O)[C@H](CO)NC(=O)[C@H](Cc1ccc(O)cc1)NC(=O)[C@H](CC(=O)O)NC(=O)[C@H](CO)NC(=O)[C@@H](NC(=O)[C@H](Cc1ccccc1)NC(=O)[C@@H](NC(=O)CNC(=O)[C@H](CCC(N)=O)NC(=O)[C@H](CO)NC(=O)[C@@H](N)Cc1c[nH]cn1)[C@@H](C)O)[C@@H](C)O)C(C)C)C(=O)N[C@@H](CC(=O)O)C(=O)N[C@@H](CO)C(N)=O` [Peptide 35], in experiment [2], the concentration giving a half-maximal response (EC50) was 0.018 ± 0.001 nM.
